Values after ≈ are worked out from the molar mass of the structure shown. Values joined by “and” are separate entries in the source; they are usually repeats but may differ in a detail not shown here. Equal entries are not always repeated. Each block holds one compound with its values, some of them ahead of it.
Legend:
Assay in all cases: ≥ marks a high value that may be exact or a test limit, other limits are often not marked, values filed in µg/mL are converted to µM
Pseudomonas aeruginosa = tested on: Pseudomonas aeruginosa
Escherichia coli E423-17 = tested on: Escherichia coli E423-17
[1] = tested on: Staphylococcus aureus USA 300 LAC
[2] = tested on: Pseudomonas aeruginosa PAO1
[3] = tested on: Pseudomonas aeruginosa ATCC 19660
[4] = tested on: Escherichia coli ATCC 25922
[5] = tested on: Enterobacter cloacae HNTCC 53001
[6] = tested on: Staphylococcus aureus NCTC 8325
[7] = tested on: Staphylococcus aureus T7/20
[8] = tested on: Enterococcus faecalis ATCC 29212
[9] = tested on: Klebsiella pneumoniae KK3 9904
[10] = tested on: Candida albicans ATCC 90028
[11] = tested on: Pseudomonas aeruginosa ATCC 27853
[12] = tested on: Staphylococcus epidermidis RP62A
[13] = tested on: Acinetobacter baumannii ATCC 19606
[14] = tested on: Staphylococcus aureus CUN 3792-99
[15] = tested on: Stenotrophomonas maltophilia CUN 3998-00
[16] = tested on: Staphylococcus aureus ATCC 43300
[17] = tested on: Pseudomonas aeruginosa CUN 4158-02
[18] = tested on: Staphylococcus aureus ATCC 25923
[19] = tested on: Bordetella bronchiseptica CUN 11844-99
Staphylococcus aureus = tested on: Staphylococcus aureus
[20] = tested on: Candida glabrata CG196/98IDE
Escherichia coli B = tested on: Escherichia coli B
Candida krusei CK802/97 = tested on: Candida krusei CK802/97
Bacillus subtilis 168 = tested on: Bacillus subtilis 168
[21] = tested on: Bacillus subtilis CCT 2471
[22] = tested on: Pseudomonas aeruginosa ATCC 15442
Bacillus thuringiensis = tested on: Bacillus thuringiensis
[23] = tested on: Bacillus cereus ATCC 11778
[24] = tested on: Staphylococcus aureus ATCC 29213
[25] = tested on: Klebsiella aerogenes ATCC 13048
[26] = tested on: Staphylococcus aureus ATCC 25293
[27] = tested on: Candida albicans ATCC 18804
[28] = tested on: Salmonella enterica subsp. enterica serovar Typhimurium ATCC 14028
Proteus mirabilis = tested on: Proteus mirabilis
[29] = tested on: Escherichia coli CCT 1371
[30] = tested on: Staphylococcus aureus ATCC 6538
[31] = tested on: Staphylococcus saprophyticus
[32] = tested on: Micrococcus luteus ATCC 10240
[33] = tested on: Staphylococcus epidermidis ATCC 12228
[34] = tested on: Staphylococcus aureus ATCC 6538P
[35] = tested on: Bacillus subtilis ATCC 6633
[36] = tested on: Shigella dysenteriae ATCC 9752
[37] = tested on: Staphylococcus aureus TK784
[38] = tested on: Klebsiella pneumoniae ATCC 10031

Compound: CC[C@H](C)[C@H](NC(=O)[C@H](CCCNC(=N)N)NC(=O)[C@H](CCC(N)=O)NC(=O)[C@@H](NC(=O)[C@@H](NC(=O)[C@H](CCCNC(=N)N)NC(=O)[C@H](CCCCN)NC(=O)[C@@H](N)Cc1ccccc1)[C@@H](C)CC)C(C)C)C(=O)N[C@@H](CCCCN)C(=O)N[C@@H](CC(=O)O)C(=O)N[C@@H](Cc1ccccc1)C(=O)N[C@@H](CC(C)C)C(=O)N[C@@H](CCCNC(=N)N)C(=O)N[C@@H](CC(N)=O)C(=O)N[C@@H](CC(C)C)C(=O)N[C@H](C=O)C(C)C [FKRIVQRIKDFLRNLV]
MIC (Pseudomonas aeruginosa): 48.9 µM and 97.7 µM
MIC (Escherichia coli E423-17): 5.66 µM and 4 µM
MIC [1]: 4 µM (≈ 8.12 µg/mL)
MIC [2]: 48.9 µM and 97.7 µM
MIC [3]: ≥ 97.7 µM

Compound: CC[C@H](C)[C@H](NC(=O)[C@H](CO)NC(=O)[C@H](CC(C)C)NC(=O)[C@@H](N)Cc1ccccc1)C(=O)N[C@H](C(=O)N[C@@H](C)C(=O)N[C@@H](CCCCN)C(=O)N[C@H](C(=O)N[C@@H](CC(C)C)C(=O)NCC(=O)N[C@@H](CO)C(=O)N[C@@H](CC(C)C)C(=O)N[C@@H](Cc1ccccc1)C(N)=O)C(C)C)[C@@H](C)CC [FLSIIAKVLGSLF]
MIC [4]: > 160 µM
MIC [5]: ≥ 160 µM
MIC [6]: 5 µM (≈ 7.03 µg/mL)
MIC [7]: 10 µM (≈ 14.1 µg/mL)
MIC [8]: 20 µM (≈ 28.1 µg/mL)
MIC [9]: ≥ 160 µM
MIC [10]: ≥ 160 µM
MIC [11]: > 160 µM
MIC [12]: 5 µM (≈ 7.03 µg/mL)

Compound: NCCCC[C@H](NC(=O)CNC(=O)[C@H](CCCCN)NC(=O)[C@H](Cc1ccccc1)NC(=O)[C@H](CCCCN)NC(=O)[C@H](Cc1c[nH]c2ccccc12)NC(=O)[C@H](CCCN=C(N)N)NC(=O)[C@H](Cc1ccccc1)NC(=O)[C@H](CCCN=C(N)N)NC(=O)[C@H](CCCN=C(N)N)NC(=O)[C@H](Cc1ccc(O)cc1)NC(=O)[C@H](CCCCN)NC(=O)[C@H](CCCCN)NC(=O)[C@H](CS)NC(=O)CN)C(=O)N[C@@H](Cc1ccccc1)C(=O)N[C@@H](Cc1c[nH]c2ccccc12)C(=O)N[C@@H](Cc1ccccc1)C(=O)N[C@@H](Cc1c[nH]c2ccccc12)C(N)=O [GCKKYRRFRWKFKGKFWFW]
MIC [13]: 24.1 µM (≈ 64 µg/mL)
MIC [4]: 24.1 µM (≈ 64 µg/mL)
MIC [14]: 24.1 µM (≈ 64 µg/mL)
MIC [15]: ≥ 48.2 µM
MIC [16]: 12.1 µM (≈ 32 µg/mL)
MIC [17]: ≥ 48.2 µM
MIC [18]: 24.1 µM (≈ 64 µg/mL)
MIC [11]: 24.1 µM (≈ 64 µg/mL)
MIC [19]: 24.1 µM (≈ 64 µg/mL)

Compound: CC[C@H](C)[C@H](NC(=O)[C@H](CC(C)C)NC(=O)[C@H](CCCCN)NC(=O)CNC(=O)[C@H](CC(C)C)NC(=O)[C@@H](NC(=O)[C@H](CCCCN)NC(=O)[C@H](CCCCN)NC(=O)[C@H](Cc1c[nH]c2ccccc12)NC(=O)[C@H](CCSC)NC(=O)CN)[C@@H](C)CC)C(=O)N[C@@H](CCCN=C(N)N)C(N)=O [GMWKKILGKLIR]
MIC (Staphylococcus aureus): 15 µM (≈ 21.6 µg/mL)
MIC (Pseudomonas aeruginosa): 13.1 µM (≈ 18.9 µg/mL)
MIC [20]: ≥ 87 µM
MIC (Escherichia coli B): 2.3 µM (≈ 3.32 µg/mL)
MIC (Candida krusei CK802/97): 28 µM and 13 µM
MIC (Bacillus subtilis 168): 0.8 µM (≈ 1.15 µg/mL)

Compound: CC(C)C[C@H](NC(=O)[C@H](CC(C)C)NC(=O)[C@H](CCCCN)NC(=O)[C@H](CCCCN)NC(=O)[C@H](CC(C)C)NC(=O)[C@H](CC(C)C)NC(=O)[C@H](CCCCN)NC(=O)[C@H](CCCCN)NC(=O)[C@@H](N)CC(C)C)C(=O)N[C@@H](CCCCN)C(=O)N[C@@H](Cc1c[nH]c2ccccc12)C(N)=O [LKKLLKKLLKW]
MIC [4]: 2.84 µM (≈ 4 µg/mL)
MIC [32]: 2.84 µM (≈ 4 µg/mL)
MIC [33]: 1.42 µM (≈ 2 µg/mL)
MIC [34]: 1.42 µM (≈ 2 µg/mL)
MIC [35]: 1.42 µM (≈ 2 µg/mL)
MIC [28]: 2.84 µM (≈ 4 µg/mL)
MIC [36]: 1.42 µM (≈ 2 µg/mL)
MIC [11]: 2.84 µM (≈ 4 µg/mL)
MIC [37]: 11.3 µM (≈ 16 µg/mL)
MIC [38]: 2.84 µM (≈ 4 µg/mL)

Second part, the compound after the results:

MIC [4]: > 160 µM
MIC [5]: ≥ 40 µM
MIC [6]: 5 µM (≈ 7.45 µg/mL)
MIC [7]: 10 µM (≈ 14.9 µg/mL)
MIC [8]: 40 µM (≈ 59.6 µg/mL)
MIC [9]: ≥ 80 µM
MIC [10]: ≥ 160 µM
MIC [11]: 160 µM (≈ 239 µg/mL)
MIC [12]: 10 µM (≈ 14.9 µg/mL)
Compound: CSCC[C@H](NC(=O)[C@@H](NC(=O)[C@@H](NC(=O)[C@H](CC(C)C)NC(=O)[C@@H]1CCCN1C(=O)[C@H](CC(C)C)NC(=O)[C@@H](N)Cc1ccccc1)C(C)C)[C@@H](C)O)C(=O)N[C@@H](CC(C)C)C(=O)N[C@@H](CC(C)C)C(=O)NCC(=O)N[C@@H](CCCCN)C(=O)N[C@@H](CC(C)C)C(=O)N[C@@H](Cc1ccccc1)C(N)=O [FLPLVTMLLGKLF]

MIC [21]: 6.8 µM (≈ 9.97 µg/mL)
MIC [22]: ≥ 150 µM
MIC (Bacillus thuringiensis): 17.1 µM (≈ 25.1 µg/mL)
MIC [23]: ≥ 68.2 µM
MIC [24]: 34.1 µM (≈ 50 µg/mL)
MIC [25]: ≥ 68.2 µM
MIC [26]: 0.7 µM (≈ 1.03 µg/mL)
MIC [27]: 12.5 µM (≈ 18.3 µg/mL)
MIC [28]: 68.2 µM (≈ 100 µg/mL)
MIC (Proteus mirabilis): ≥ 150 µM
MIC [29]: 3.4 µM (≈ 4.98 µg/mL)
MIC [11]: 68.3 µM (≈ 100 µg/mL)
MIC [30]: 3.4 µM (≈ 4.98 µg/mL)
MIC [31]: 0.7 µM (≈ 1.03 µg/mL)
Compound: CC[C@H](C)[C@H](N)C(=O)N[C@@H](Cc1ccccc1)C(=O)NCC(=O)N[C@@H](C)C(=O)N[C@H](C(=O)N[C@@H](Cc1c[nH]c2ccccc12)C(=O)N[C@@H](CC(N)=O)C(=O)NCC(=O)N[C@H](C(=O)N[C@@H](CCCCN)C(=O)N[C@@H](CO)C(=O)N[C@@H](CC(C)C)C(=O)N[C@@H](Cc1ccccc1)C(=O)O)[C@@H](C)CC)[C@@H](C)CC [IFGAIWNGIKSLF]
